Laboratory results published in the NIST ThermoML archive (doi:10.1021/acs.jced.8b00451).
± gives the expanded uncertainty stated by the source.

Details: Liquid, Ebulliometric method (Recirculating still)

| Structure (SMILES) | vapor or sublimation pressure (394.7 K) | vapor or sublimation pressure (434 K) | vapor or sublimation pressure (434.1 K) | vapor or sublimation pressure (444.3 K) | vapor or sublimation pressure (459.3 K) | vapor or sublimation pressure (469.3 K) | vapor or sublimation pressure (479.4 K) |
| --- | --- | --- | --- | --- | --- | --- | --- |
| O=Cc1ccco1 [2-furaldehyde] | 30 ± 0.2 kPa |  |  |  |  |  |  |
| CC1CCC(=O)O1 (configuration not stated) [γ-valerolactone] |  | 29.9 ± 0.2 kPa | 30 ± 0.2 kPa | 40.6 ± 0.2 kPa | 61.7 ± 0.2 kPa | 80 ± 0.2 kPa | 102.6 ± 0.3 kPa |
